Laboratory results as given in patent US6762181B1, “Aminomethylpyrrolidine derivatives having aromatic substituents” (Daiichi Pharmaceutical Co., Ltd., priority 1999, dated 2004).
Values after ≈ are worked out from the molar mass of the structure shown. Where two headings read alike, the source gives them in different places.

What was measured:
Assay in all cases: Antibacterial activity (MIC), Japan Society of Chemotherapy standard method
Format in all cases: cell-based
X. maltophilia IID 1275 = tested on: X. maltophilia IID 1275
Protocol: (§1) Antibacterial activities of the compounds of the invention were measured in accordance with the standard method specified by the Japan Society of Chemotherapy, with the results shown in the following table as MIC values (μg/ml). In this connection, MIC values of levofloxacin (LVFX), ciprofloxacin (CPFX) and 5-amino-7-[3-(R)-[1-(S)-aminoethyl]pyrrolidin-1-yl]-6-fluoro-1-[2-(S)-fluoro-1-(R)-cyclopropyl]-8-methyl-1,4-dihydro-4-oxoquinoline-3-carboxylic acid (control drug 1) described in WO 9623782 are also shown for the sake of comparison with the MIC values of the compounds of the invention.

K. pneumoniae TYPE 1 = tested on: K. pneumoniae TYPE 1
Protocol: as §1

Ser. marcescens 10100 = tested on: Ser. marcescens 10100
Protocol: as §1

Str. pyrogenes G-36 = tested on: Str. pyrogenes G-36
Protocol: as §1

E. coli NIHJ = tested on: E. coli NIHJ
Protocol: as §1

S. flexneri 2A 5503 = tested on: S. flexneri 2A 5503
Protocol: as §1

Ps. aeruginosa 32121 = tested on: Ps. aeruginosa 32121
Protocol: as §1

Pr. Vulgaris O8601 = tested on: Pr. Vulgaris O8601
Protocol: as §1

S. aureus 870307 = tested on: S. aureus 870307
Protocol: as §1

S. epidermidis 56500 = tested on: S. epidermidis 56500
Protocol: as §1

Ps. aeruginosa 32104 = tested on: Ps. aeruginosa 32104
Protocol: as §1

S. aureus FDA 209P = tested on: S. aureus FDA 209P
Protocol: as §1

Str. pneumoniae J24 = tested on: Str. pneumoniae J24
Protocol: as §1

E. faecalis ATCC 19433 = tested on: E. faecalis ATCC 19433
Protocol: as §1

[1] = Stenotrophomonas maltophilia, IID1275, X. maltophilia IID 1275, read-out: MIC
[2] = Klebsiella pneumoniae, TYPE1, K. pneumoniae TYPE 1, read-out: MIC
[3] = Serratia marcescens, 10100, Ser. marcescens 10100, read-out: MIC
[4] = Escherichia coli, read-out: MIC
[5] = Shigella flexneri, 2A5503, S. flexneri 2A 5503, read-out: MIC
[6] = Pseudomonas aeruginosa, 32121, Ps. aeruginosa 32121, read-out: MIC
[7] = Proteus vulgaris, read-out: MIC
[8] = Staphylococcus aureus, 870307, S. aureus 870307, read-out: MIC
[9] = Staphylococcus epidermidis, read-out: MIC
[10] = Pseudomonas aeruginosa, 32104, Ps. aeruginosa 32104, read-out: MIC
[11] = Staphylococcus aureus, FDA209P, read-out: MIC
[12] = Streptococcus pneumoniae, J24, Str. pneumoniae J24, read-out: MIC
[13] = Enterococcus faecalis, ATCC19433, E. faecalis ATCC 19433, read-out: MIC

SMILES	MIC (X. maltophilia IID 1275; X. maltophilia IID 1275) [µg/mL]	MIC (K. pneumoniae TYPE 1; K. pneumoniae TYPE 1) [µg/mL]	MIC (Ser. marcescens 10100; Ser. marcescens 10100) [µg/mL]	MIC (Str. pyrogenes G-36)	MIC (E. coli NIHJ)	MIC (S. flexneri 2A 5503; S. flexneri 2A 5503)	MIC (Ps. aeruginosa 32121; Ps. aeruginosa 32121) [µg/mL]	MIC (Pr. Vulgaris O8601) [µg/mL]	MIC (S. aureus 870307; S. aureus 870307)	MIC (S. epidermidis 56500)	MIC (Ps. aeruginosa 32104; Ps. aeruginosa 32104) [µg/mL]	MIC (S. aureus FDA 209P)	MIC (Str. pneumoniae J24; Str. pneumoniae J24)	MIC (E. faecalis ATCC 19433; E. faecalis ATCC 19433) [µg/mL]	MIC (X. maltophilia IID 1275; [1]) [µg/mL]	MIC (K. pneumoniae TYPE 1; [2]) [µg/mL]	MIC (Ser. marcescens 10100; [3]) [µg/mL]	MIC (Str. pyrogenes G-36; read-out: MIC) [µg/mL]	MIC (E. coli NIHJ; [4]) [µg/mL]	MIC (S. flexneri 2A 5503; [5]) [µg/mL]	also measured
C[C@H]1COc2c(N3CC[C@@H](C(N)c4ccccc4)C3)c(F)cc3c(=O)c(C(=O)O)cn1c23 (stereo partly drawn) [Example 4, 10-[3-(R)-(1-Amino-1-Phenylmethyl)-1-Pyrrolidinyl]-9-Fluoro-2,3-Dihydro-3-(S)-Methyl-7-Oxo-7H-Pyrido [1,2,3,-de] [1,4] Benzoxazine-6-Carboxylic Acid]	0.05 (≈ 0.114 µM)	0.025 (≈ 0.0571 µM)	0.025 (≈ 0.0571 µM)	≦0.003 μg/ml	≦0.003 μg/ml	≦0.003 μg/ml	0.05 (≈ 0.114 µM)	0.013 (≈ 0.0297 µM)	≦0.003 μg/ml	≦0.003 μg/ml	0.1 (≈ 0.229 µM)	≦0.003 μg/ml	≦0.003 μg/ml	0.006 (≈ 0.0137 µM)	–	–	–	–	–	–	–
Cc1c(N2CC[C@@H](C(N)c3ccccc3)C2)c(F)c(N)c2c(=O)c(C(=O)O)cn([C@@H]3C[C@@H]3F)c12 (stereo partly drawn) [Example 5, 5-Amino-7-[3-(R)-(1-Amino-1-Phenylmethyl)-1-Pyrrolidinyl]-6-Fluoro-1-[2-(S)-Fluoro-1-(R)-Cyclopropyl]-1,4-Dihydro-8-Methyl-4-Oxoquinoline-3-Carboxylic Acid]	–	–	–	–	–	–	–	–	–	–	–	–	–	–	0.025 (≈ 0.0534 µM)	0.013 (≈ 0.0277 µM)	0.025 (≈ 0.0534 µM)	≤ 0.003	≤ 0.003	≤ 0.003	MIC (Ps. aeruginosa 32121; [6]): 0.025 µg/mL (≈ 0.0534 µM); MIC (Pr. Vulgaris O8601; [7]): 0.013 µg/mL (≈ 0.0277 µM); MIC (S. aureus 870307; [8]): ≤ 0.003 µg/mL; MIC (S. epidermidis 56500; [9]): ≤ 0.003 µg/mL; MIC (Ps. aeruginosa 32104; [10]): 0.1 µg/mL (≈ 0.213 µM); MIC (S. aureus FDA 209P; [11]): ≤ 0.003 µg/mL; MIC (Str. pneumoniae J24; [12]): ≤ 0.003 µg/mL; MIC (E. faecalis ATCC 19433; [13]): 0.006 µg/mL (≈ 0.0128 µM)
COc1c(N2CC[C@@H](C(N)c3ccccc3)C2)ccc2c(=O)c(C(=O)O)cn([C@@H]3C[C@@H]3F)c12 (stereo partly drawn) [Example 6, 7-[3-(R)-(1-Amino-1-Phenylmethyl)-1-Pyrrolidinyl]-1-[2-(S)-Fluoro-1-(R)-Cyclopropyl]-1,4-Dihydro-8-Methoxy-4-Oxoquinoline-3-Carboxylic Acid]	–	–	–	–	–	–	–	–	–	–	–	–	–	–	0.1 (≈ 0.221 µM)	0.05 (≈ 0.111 µM)	0.1 (≈ 0.221 µM)	≤ 0.003	0.006 (≈ 0.0133 µM)	0.013 (≈ 0.0288 µM)	MIC (Ps. aeruginosa 32121; [6]): 0.1 µg/mL (≈ 0.221 µM); MIC (Pr. Vulgaris O8601; [7]): 0.1 µg/mL (≈ 0.221 µM); MIC (S. aureus 870307; [8]): 0.013 µg/mL (≈ 0.0288 µM); MIC (S. epidermidis 56500; [9]): 0.006 µg/mL (≈ 0.0133 µM); MIC (Ps. aeruginosa 32104; [10]): 0.2 µg/mL (≈ 0.443 µM); MIC (S. aureus FDA 209P; [11]): ≤ 0.003 µg/mL; MIC (Str. pneumoniae J24; [12]): ≤ 0.003 µg/mL; MIC (E. faecalis ATCC 19433; [13]): 0.025 µg/mL (≈ 0.0554 µM)
COc1ccccc1C(N)[C@@H]1CCN(c2c(F)c(N)c3c(=O)c(C(=O)O)cn([C@@H]4C[C@@H]4F)c3c2F)C1 (stereo partly drawn) [Example 8, 5-Amino-7-[3-(R)-(1-Amino-1-(2-Methoxy) Phenylmethyl)-1-Pyrrolidinyl]-6,8-Difluoro-1-[2-(S)-Fluoro-1-(R)-Cyclopropyl]-1,4-Dihydro-4-Oxoquinoline-3-Carboxylic Acid]	0.2 (≈ 0.398 µM)	0.05 (≈ 0.0995 µM)	0.2 (≈ 0.398 µM)	≦0.003 μg/ml	≦0.003 μg/ml	0.006 µg/mL (≈ 0.0119 µM)	0.1 (≈ 0.199 µM)	0.2 (≈ 0.398 µM)	0.013 µg/mL (≈ 0.0259 µM)	≦0.003 μg/ml	0.2 (≈ 0.398 µM)	≦0.003 μg/ml	≦0.003 μg/ml	0.025 (≈ 0.0498 µM)	–	–	–	–	–	–	–
Nc1c(F)c(N2CC[C@@H](C(N)c3ccc(F)cc3F)C2)c(F)c2c1c(=O)c(C(=O)O)cn2[C@@H]1C[C@@H]1F (stereo partly drawn) [Example 10, 5-Amino-7-[3-(R)-(1Amino-1-(2,4-Difluoro) Phenylmethyl)-1-Pyrrolidinyl]-6,8-Difluoro-1-[2-(S)-Fluoro-1-(R)-Cyclopropyl]-1,4-Dihydro-4-Oxoquinoline-3-Carboxylic Acid]	0.05 (≈ 0.0983 µM)	0.013 (≈ 0.0256 µM)	0.1 (≈ 0.197 µM)	≦0.003 μg/ml	≦0.003 μg/ml	≦0.003 μg/ml	0.1 (≈ 0.197 µM)	0.1 (≈ 0.197 µM)	0.006 µg/mL (≈ 0.0118 µM)	≦0.003 μg/ml	0.2 (≈ 0.393 µM)	≦0.003 μg/ml	≦0.003 μg/ml	0.025 (≈ 0.0492 µM)	–	–	–	–	–	–	–
